Patent US20260109688A1, “NOVEL ANTIBIOTIC COMPOUND” (SINTEF TTO AS, priority 2022, published 2026)
In brackets after ≈: the same amount, converted by molar mass.

Experiments:
E. faecium CCUG 37832 = assay: In vitro MIC bioassay (broth microdilution, 384 well); format: cell-based, Enterococcus faecium; settings: Mueller-Hinton broth, 2.7% DMSO
Description: (§1) Minimal inhibitory concentrations against a selection of Gram-positive indicator organisms (MICs) were determined according to Clinical and Laboratory Standards Institute protocols by microdilution tests using in a 384 well format. The indicator strains were incubated in TSB medium over night until OD600-0.4, then diluted to OD600=0.1 in TSB medium and further 45× in assay medium (Mueller-Hinton broth, Difco). Inoculated medium was distributed into assay plates. Inoculated wells were added a 2× dilution series of either isolated compound or vancomycin (reference) diluted in DMSO, giving a final DMSO concentration in each well of 2.7%, and final concentrations of active compound between 0 and 540 μg/ml (23 different concentrations). Four parallels were assayed for each compound and concentration. 0.5 mg of the compound produced by strain M1152ΔmatAB (P08-G05_C16) was purified on preparative HPLC, and the pure compound was tested in bioassay against a panel of strains. The indicator organisms were M. luteus ATCC 9341, Staphylococcus aureus ATCC 29213, Staphylococcus aureus ATCC 43300 (MRSA), Enterococcus faecium CCUG 37832, Enterococcus faecium CTC 492.

E. faecium CTC 492 = assay: as above; format: cell-based, Enterococcus faecium; settings: Mueller-Hinton broth, 2.7% DMSO
Description: as §1

Which results are given for CN[C@H](CC(C)C)C(=O)N[C@H]1C(=O)N[C@@H](CC(N)=O)C(=O)N[C@H]2C(=O)N[C@H]3C(=O)N[C@H](C(=O)N[C@H](C(=O)O)c4cc(O)cc(O)c4-c4cc3ccc4O)[C@H](O)c3ccc(c(Cl)c3)Oc3cc2cc(c3O[C@@H]2O[C@H](CO)[C@@H](O)[C@H](O)[C@H]2O[C@H]2C[C@](C)(N)[C@H](O)[C@H](C)O2)Oc2ccc(cc2Cl)[C@H]1O [Vancomycin, vancomycin]?
MIC70: E. faecium CCUG 37832 (E. faecium CCUG 37832): 270 µg/mL (≈ 186 µM); MIC70: E. faecium CTC 492 (E. faecium CTC 492): 1.06 µg/mL (≈ 0.731 µM)
